In patent EP0172581B1, “Disaccharide derivatives” (DAIICHI SEIYAKU CO., LTD., priority 1984, dated 1986):
Like-named read-outs stand apart in the source and are kept apart here.

Experiments:
[1] = tested on: isolated murine lymphocytes (splenocytes); experiment: Test on mitogenicity ([³H]-labeled thymidine uptake); format: cell-based, BALB/c nu/nu mice; details: T/C, 48 hours incubation
Method: Spleen of BALB/c nu/nu mice (male; 8-week old) was minced, and lymphocytes collected from the minced spleen were incubated with graded doses of test compounds in RPMI 1640 medium without fetal bovine serum at 37°C at a concentration of 1 x 10⁵ to 1 x 10⁶ lymphocytes per mℓ for 48 hours. Twenty-four hours before the completion of the incubation, [³H]-labeled thymidine (manufactured by New England Nuclear) was added to the culture. After the completion of the incubation, cells were collected on glass micro-fiber paper and dried, and the radioactivity of [³H]-labeled thymidine incorporated into the cells was measured. The ratio of thymidine uptake in the test culture to which the test compound had been added to that in the respective control culture was determined as a stimulation index. The higher the stimulation index, the higher the mitogenicity.

[2] = tested on: Japanese white rabbits; format: in vivo; details: for Number of Necrosed Animals/Number of Tested Animals: 100 µg LPS intravenously 20 hours later
Method: The local Shwartzman reaction test (Test I) is examined to determine the phenomenon of necrosis, at the site where a test compound was injected, induced by intravenous injection of lipopolysaccharide (hereinafter referred to as LPS) after 20 hours from intracutaneous injection of the test compound to test animals, preferably in rabbits.
The test on Shwartzman reaction specific to endotoxin was carried out as follows using Japanese white rabbits (female, weighing around 3 kg). That is, Japanese domestic white rabbits were intracutaneously injected with the test compound. Twenty hours later, 100 µg of LPS extracted from Salmonella minnesota R595, Re-mutant was intravenously injected to each rabbit. The Shwartzman reaction-induction activity was expressed in terms of number of animals that suffered from hemorrhagic necrosis at the site that had been prepared by intracutaneous injection of the test compound.

[3] = tested on: Japanese domestic white rabbits; experiment: Test II - test on pyrogenicity (Japanese Pharmacopoeia); format: in vivo; details: for Number of Febrile Animals/Number of Tested Animals: 0.1 µg/kg intravenously, febrile = temperature increase of 0.6°C or more
Method: The pyrogenicity of the compounds of this invention was determined in terms of body temperature increase in rabbits after intravenous injection of the test compound in accordance with the test method of pyrogenicity defined in Japanese Pharmacopoeia. That is, the rectal temperatures of Japanese domestic white rabbits (body weight: 2 to 2.5 kg) were measured 3 times at one-hour intervals. When the temperature in the second and third measurements were substantially equal, the third temperature was taken as a reference temperature. Within 15 minutes after the third measurement, the test compound dissolved in pyrogen-free distilled water was injected in the ear vein, and the rectal temperature was measured 3 times at one-hour intervals after injection. A difference between the reference temperature and the maximum temperature was taken as an increase of body temperature, and the pyrogenicity of the test compound was expressed by the number of febrile animals showing a temperature increase of 0.6°C or more.

[4] = tested on: clotting enzyme of Tachypleus tridentatus (horseshoe crab) amoebocytes; experiment: Test III - Limulus test (toxicolor test); format: biochemical; details: activity of 1 mg test compound converted to amount of LPS from E. coli 0111:B4
Text: Also, the compounds of this invention are very useful as a standard reagent for determination of endotoxin in the samples to be tested, and their activity has been confirmed by the local Shwartzman reaction test (Test I in Test Example 3), the pyrogenicity test (Test II in Test Example 3), and the activation of clotting enzyme of Tachypleus tridentatus (horseshoe crab) amoebocytes, i.e., Limulus test (Test III in Test Example 3).
The pyrogenicity of the compounds of this invention was also determined by Limulus test (toxicolor test). That is, the test compound was dissolved in a pyrogen-free 0.1% (vol/vol) triethylamine aqueous solution to a concentration of 2 mg/mℓ and diluted with pyrogen-free distilled water to a concentration of 4 X 10⁻¹ mg/mℓ. Subsequently, dilute aqueous solutions having concentrations of from 4 X 10⁻¹ mg/mℓ to 4 × 10⁻¹⁰ mg/mℓ were prepared by serial 10-fold dilution. […] Thereafter, 0.5 mℓ of sodium nitrite was added to the culture, and after stirring 0.1 mℓ each of ammonium sulfamate and N-(1-naphthyl)-ethylenediamine were added thereto to develop a color, and absorbance at a wavelength of 545 nm was determined. […]

| SMILES | Stimulation Index ±S.E. ([1]; 0.01 µg/mℓ test compound added) | Stimulation Index ±S.E. ([1]; 0.1 µg/mℓ test compound added) | Stimulation Index ±S.E. ([1]; 1 µg/mℓ test compound added) | Number of Necrosed Animals/Number of Tested Animals ([2]; 20 µg/site intracutaneously) | Number of Febrile Animals/Number of Tested Animals [3] | Converted LPS Amount [4] | Number of Necrosed Animals/Number of Tested Animals ([2]; 80 µg/site intracutaneously) | reaction in Test I (local Shwartzman reaction) ([2]; summary in words) | reaction in Test II (pyrogenicity) ([3]; summary in words) |
| --- | --- | --- | --- | --- | --- | --- | --- | --- | --- |
| CCCCCCCCCCCCCC(=O)O[C@H](CCCCCCCCCCC)CC(=O)O[C@@H]1[C@@H](NC(=O)C[C@@H](CCCCCCCCCCC)OC(=O)CCCCCCCCCCC)[C@H](OC[C@H]2O[C@H](OP(=O)(O)O)[C@H](NC(=O)C[C@H](O)CCCCCCCCCCC)[C@@H](OC(=O)C[C@H](O)CCCCCCCCCCC)[C@@H]2O)O[C@H](CO)[C@H]1OP(=O)(O)O [Compound of Present Invention, 6-O-{2-Deoxy-2-[(R)-3-dodecanoyloxytetradecanoylamino]-3-O-[(R)-3-tetradecanoyloxytetradecanoyl]-4-O-phosphono-β-D-glucopyranosyl}-2-deoxy-2-[(R)-3-hydroxytetradecanoylamino]-3-O-[(R)-3-hydroxytetradecanoyl]-1-O-phosphono-α-D-glucopyranose] | 4.06 ± 0.35 | 9.05 ± 0.70 | 11.76 ± 0.13 | 2/3 | 3/4 | 2.38 mg |  |  |  |
| CCCCCCCCCCC[C@@H](O)CC(=O)N[C@H]1[C@H](OC[C@H]2O[C@H](OP(=O)(O)O)[C@H](NC(=O)C[C@H](O)CCCCCCCCCCC)[C@@H](OC(=O)C[C@H](O)CCCCCCCCCCC)[C@@H]2O)O[C@H](CO)[C@@H](OP(=O)(O)O)[C@@H]1OC(=O)C[C@H](O)CCCCCCCCCCC [Control Compound 1, 6-O-{2-Deoxy-2-[(R)-3-hydroxytetradecanoylamino]-3-O-[(R)-3-hydroxytetradecanoyl]-4-O-phosphono-β-D-glucopyranosyl}-2-deoxy-2-[(R)-3-hydroxytetradecanoylamino]-3-O-[(R)-3-hydroxytetradecanoyl]-1-O-phosphono-α-D-glucopyranose] |  |  |  |  | 0/3 | 1.34 mg | 0/3 | negative | negative |
